Measurements: ChEMBL document CHEMBL4177610, “Discovery of a novel 2,4-dimethylquinoline-6-carboxamide M4 positive allosteric modulator (PAM) chemotype via scaffold hopping” (Bioorg Med Chem Lett, 2017)
The source made the active and inactive calls. The rule behind the calls is not given here.

How the values were obtained:
[1] = biological target: T1, Muscarinic acetylcholine receptor M4 (Rattus norvegicus, UniProt P08485); assay: (§1) Positive allosteric modulation of rat M4 receptor expressed in CHO cells co-expressing Gqi5 assessed as increase in acetylcholine-induced calcium mobilization; format: functional, cell-based
T1 sequence (P08485 whole entry): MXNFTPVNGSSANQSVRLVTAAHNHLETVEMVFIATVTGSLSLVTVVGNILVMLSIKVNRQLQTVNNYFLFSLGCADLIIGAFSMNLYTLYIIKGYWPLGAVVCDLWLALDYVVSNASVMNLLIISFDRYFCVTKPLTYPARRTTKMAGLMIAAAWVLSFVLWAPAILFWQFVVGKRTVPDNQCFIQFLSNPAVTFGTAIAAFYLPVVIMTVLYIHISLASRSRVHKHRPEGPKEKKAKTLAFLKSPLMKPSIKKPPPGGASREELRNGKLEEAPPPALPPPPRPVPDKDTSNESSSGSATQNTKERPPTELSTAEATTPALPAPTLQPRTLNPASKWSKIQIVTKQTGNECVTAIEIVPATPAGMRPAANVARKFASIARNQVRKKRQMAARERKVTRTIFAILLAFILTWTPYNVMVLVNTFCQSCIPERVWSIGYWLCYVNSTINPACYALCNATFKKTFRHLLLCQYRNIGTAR

[2] = biological target: T2, Muscarinic acetylcholine receptor M4 (Rattus norvegicus) (UniProt P08485); assay: Positive allosteric modulation of rat M4 receptor expressed in CHO cells co-expressing Gqi5 assessed as increase in acetylcholine-induced calcium mobilization relative to acetylcholine; format: functional, cell-based
T2 sequence (whole entry): T1 sequence (P08485 whole entry)

[3] = Fraction unbound in rat plasma; format: ADME, cell-free
[4] = Fraction unbound in rat brain; format: ADME, tissue-based
[5] = Fraction unbound in human plasma; format: ADME, cell-free
[6] = Intrinsic clearance in rat liver microsomes; format: ADME, microsome; conditions: read-out: CLH
[7] = Intrinsic clearance in human liver microsomes; format: ADME, microsome; conditions: read-out: CLH
[8] = Ratio of unbound brain to plasma concentration in Sprague-Dawley rat at 0.2 mg/kg, iv measured after 0.25 hrs; format: ADME, organism-based; conditions: brain and plasma, read-out: K(p,uu,brain)
[9] = Brain to plasma partition coefficient, Kp of the compound in Sprague-Dawley rat at 0.2 mg/kg, iv measured after 0.25 hrs; format: ADME, organism-based; conditions: brain and plasma
[10] = biological target: T2, Muscarinic acetylcholine receptor M4 (Rattus norvegicus); assay: as §1; format: functional, cell-based

EC50 ([1]; read-out: EC50) [nM]	%max [2] [%]	SMILES	other results
225	44	Cc1cc(C)c2cc(C(=O)NC3CN(c4cc(Cl)nc(Cl)c4)C3)ccc2n1	
967	84	Cc1cc(C)c2cc(C(=O)NC3CN(c4ccc(Cl)cn4)C3)ccc2n1	
935	82	Cc1cc(C)c2cc(C(=O)NC3CN(c4ncccc4Cl)C3)ccc2n1	
	18.3	Cc1cc(C)c2cc(C(=O)N3CCCC3)ccc2n1	pEC50 [10]: inactive; EC50 ([1]; cho): Not Active
440	77	Cc1cc(C)c2cc(C(=O)NC3CN(c4cccc(Cl)n4)C3)ccc2n1	
1070	82	Cc1cc(C)c2cc(C(=O)NC3CN(c4cnc(C5CC5)cn4)C3)ccc2n1	
332	82	Cc1cc(C)c2cc(C(=O)NC3CN(c4ccnc(F)c4F)C3)ccc2n1	fraction unbound [3]: 0.013; fraction unbound [4]: 0.023; fraction unbound [5]: 0.009; CLint scaled [6]: 232 mL/min/kg; CLint scaled [7]: 129 mL/min/kg; Kp uu at 0.25 h [8]: 0.3; Kp at 0.25 h [9]: 0.17
307	57	Cc1cc(C)c2cc(C(=O)NC3CN(c4cc(Cl)ncc4Cl)C3)ccc2n1	fraction unbound [3]: 0.002; fraction unbound [4]: 0.006; fraction unbound [5]: 0.002; CLint scaled [6]: 295 mL/min/kg; CLint scaled [7]: 160 mL/min/kg; Kp uu at 0.25 h [8]: 0.3; Kp at 0.25 h [9]: 0.1
401	72	Cc1cc(C)c2cc(C(=O)NC3CN(c4ncc(F)cc4Cl)C3)ccc2n1	
> 10000	61	Cc1cc(C)c2cc(C(=O)NC3CN(c4ncc(F)cn4)C3)ccc2n1	
587	70	Cc1cc(C)c2cc(C(=O)NC3CN(c4ncc(Cl)cc4Cl)C3)ccc2n1	
453	82	Cc1cc(C)c2cc(C(=O)NC3CN(c4ncc(Cl)cc4F)C3)ccc2n1	

The next lines start with the compound.

SMILES	EC50 ([1]; read-out: EC50) [nM]	%max [2] [%]	other results
Cc1ccc(OC2CCN(c3ncnc4ccc(F)cc34)CC2)cn1	225		
Cc1cc(C)c2cc(C(=O)NC3CN(c4ccc(F)c(F)c4)C3)ccc2n1	856	55	
Cc1cc(C)c2cc(C(=O)NC3CN(c4ncc(OC(C)C)cn4)C3)ccc2n1	6140	73	
Cc1cc(C)c2cc(C(=O)NC3CN(c4ncc(C(F)(F)F)cn4)C3)ccc2n1	3910	66	
COc1ccc(CNC(=O)c2ccc3nc(C)cc(C)c3c2)cc1F	> 10000	63	
COc1cc(N2CC(NC(=O)c3ccc4nc(C)cc(C)c4c3)C2)c(Cl)cn1	383	62	fraction unbound [3]: 0.002; fraction unbound [4]: 0.008; fraction unbound [5]: 0.002; CLint scaled [6]: 178 mL/min/kg; CLint scaled [7]: 106 mL/min/kg; Kp uu at 0.25 h [8]: 3.36; Kp at 0.25 h [9]: 0.84
Cc1cc(C)c2cc(C(=O)NC3CN(c4cnc(C(F)(F)F)cn4)C3)ccc2n1	1160	75	
Cc1cc(C)c2cc(C(=O)NC3CN(c4ccnc(C(F)(F)F)c4)C3)ccc2n1	820	61	
Cc1cc(C)c2cc(C(=O)NC3CN(c4ccc(C(F)(F)F)nc4)C3)ccc2n1	449	85	fraction unbound [3]: 0.004; fraction unbound [4]: 0.016; fraction unbound [5]: 0.005; CLint scaled [6]: 94 mL/min/kg; CLint scaled [7]: 36 mL/min/kg; Kp uu at 0.25 h [8]: 0.2; Kp at 0.25 h [9]: 0.05
Cc1cc(C)c2cc(C(=O)NC3CN(c4ccc(OC(F)F)nc4)C3)ccc2n1		43	pEC50 [10]: inactive; EC50 ([1]; cho): Not Active
COc1ccc(C)c2sc(NC(=O)c3ccncc3)nc12	225		
COc1nc2sc(C(=O)NC3CC3)c(N)c2c(C)c1Cl	225		
Cc1cc(C)c2cc(C(=O)NC3CN(c4ccnc(OC(F)F)c4)C3)ccc2n1	1130	86	
COc1ccc(CNC(=O)c2sc3nnc(C)c(C)c3c2N)cc1F	225		
Cc1cc(N2CC(NC(=O)c3ccc4nc(C)cc(C)c4c3)C2)cc(OC(F)F)n1	1060	71	
Cc1cc(C)c2cc(C(=O)NC3CN(c4ccc(C(F)(F)F)cn4)C3)ccc2n1	1080	77	
